Our source for the Mortality, mortality and Blood-feeding inhibition values is patent US10085449B2, “N-[1-((6-chloropyridin-3-yl)methyl)pyridin-2(1H)-ylidene]-2,2,2- trifluoroacetamide for control of agricultural/horticultural pests” (priority 2010, dated 2018).

Read-outs that look alike come from different tables or passages of the source.

The term mortality denotes the percentage killed.

Data set [1] deals with small brown planthopper having a low susceptibility to insecticides. As to the kind of experiment: Small brown planthopper control test, pests having a low susceptibility to insecticides (soil drenching). It counts as in vivo. The settings on record: both lines (susceptible and field-collected). The protocol: Rice seedlings grown in pots were subjected to soil drenching treatment with solutions of the inventive compounds at a predetermined concentration prepared to 10% acetone/water. Three days after treatment, ten second-instar small brown planthopper larvae having a low susceptibility to insecticides were released onto each seedling. The seedlings and insects were then held in an incubation chamber at 25° C. (16-hour period of light, 8-hour dark period). Three days after released, the numbers of live and dead insects were counted, and the mortality was calculated from the following formula. The test was carried out as two replications. Mortality (%)=[number of dead insects/(number of live insects+number of dead insects)]×100
The pests used in this test were insects that had been raised indoors for successive generations over a long period of time (susceptible line), and insects that had been raised indoors for successive generations after being collected in 2006 within Kumamoto Prefecture (field-collected line).

The next data set relates to cotton aphid. As to the kind of experiment: whole plant or invertebrate. In kind it is in vivo. The settings on record: Aphis gossypii, foliar. The procedure, abridged: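 Cucumber leaf discs (2.0 cm) sprayed with compound in 50% acetone/water with 0.05% Tween 20, air-dried, then infested with first-instar cotton aphids. Held at 25 °C under 16 h light/8 h dark; mortality counted after 3 days, two replicates.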

Data set [2] deals with Haemaphysalis longicornis. As to the kind of experiment: Tick (Haemaphysalis longicornis) control test on body surface of mouse. It counts as in vivo, Haemaphysalis longicornis on mice (ICR). The settings on record: 20 μL of 1,000-fold dilution of agent prepared as in Formulation Example 11 on mouse body surface, larval ticks, 3 days after release. The protocol: Ventral fur was shaved from an area having a diameter of about 2 cm in mice (ICR, 5-week-old males), and a 15 mL polystyrene conical tube cut to a length of about 1.5 cm was attached to the shaved area using instant glue.
An amount of 20 μL of a 1,000-fold dilution of the pest control agent prepared in the same way as in Formulation Example 11 was added dropwise onto the body surface of the mice within the attached tube. After the solution was allowed to dry thoroughly, ten or more larval ticks (Haemaphysalis longicornis) were released into the tube, which was then capped. Three days after released, the numbers of live and dead ticks were counted, and the mortality was calculated from the following formula. Blood-feeding inhibition (%)=100−[number of feeding ticks/(number of live ticks+number of dead ticks)]×100

The next data set relates to greenhouse whitefly. The data set is described as follows: whole plant or invertebrate. It counts as in vivo. The settings on record: Cucumis sativus, foliar, 336 h. The protocol: Adult greenhouse whiteflies were released onto cucumber plants grown in pots, and allowed to laid eggs overnight. One day after the start of oviposition, the adults were removed, and the plants and eggs were held in an incubation chamber at 25° C. (16-hour period of light, 8-hour dark period). Three days after the end of oviposition, leaf discs 2.0 cm in diameter were cut from the cucumber plants and, after confirming oviposition thereon, the leaf discs were sprayed with solutions of the inventive compounds at a predetermined concentration prepared to 50% acetone/water (containing 0.05% Tween 20). After spraying, the treated leaf discs were held in an incubation chamber at 25° C. (16-hour period of light, 8-hour dark period). Fourteen days after spraying, the numbers of live and dead insects were counted, and the mortality was calculated from the following formula. This was a two-replication test. Mortality (%)=[(number of oviposited eggs−number of live insects)/number of oviposited eggs]×100

Another data set deals with rice leaf bug. As to the kind of experiment: whole plant or invertebrate. It counts as in vivo. The settings on record: foliar, 72 h. The method, boiled down:
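Four-day wheat seedling shoots dipped 30 s in compound solution (50% acetone/water, 0.05% Tween 20), air-dried, then infested with two second-instar larvae per glass cylinder at 25 °C, 16 h light/8 h dark. Mortality (%) counted after 3 days.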

Where [3] appears, read: read-out: Insecticidal effects (mortality), cotton aphid first-instar larvae.

Take `O=C(N=c1ccccn1Cc1ccc(Cl)nc1)C(F)(F)F` [Compound 212, N-[1-((6-chloropyridin-3-yl)methyl)pyridin-2(1H)-ylidene]-2,2,2-trifluoroacetamide]: in data set [1] (0.005 mg/seedling soil drenching), the Mortality entry was “at least 90%”. The compound also came in with a Mortality in data set [1] (0.01 mg/seedling soil drenching) of 100%. Further, in the data set on cotton aphid (setting [3]), the mortality at 1.25 ppm is 100%, the mortality at 5 ppm was determined as 95%, the mortality at 20 ppm amounted to 100% and the mortality at 100 ppm is 100%. The mortality at 500 ppm with cotton aphid (setting [3]) stood at 100%. In the data set on cotton aphid (in Cucumis sativus, 72 h), this compound gave a mortality at 20 ppm of no less than 80%, a mortality at 100 ppm of no less than 80% and a mortality at 500 ppm of no less than 80%. In addition, in data set [2], the Blood-feeding inhibition is reported as 91%. Moreover, the mortality at 100 ppm in the data set with greenhouse whitefly was no less than 80%. Further, in the data set on rice leaf bug, the mortality at 50 ppm was no less than 80%.
